Experimental data from patent publication US7671062B2, “Modulators of chemokine receptor activity, crystalline forms and process” (Bristol-Myers Squibb Company, priority 2006, dated 2010).
Read-outs that look alike come from different tables or passages of the source.

Assays:
[1] = Moisture-sorption isotherm; type: physicochemical; details: ca. 25% to ca. 75% RH at 25° C.
Method: A sample of the oily, gel-like (amorphous) free base of N-((1R,2S,5R)-5-(isopropyl(methyl)amino)-2-((S)-2-oxo-3-(6-(trifluoromethyl)quinazolin-4-ylamino)pyrrolidin-1-yl)cyclohexyl)acetamide (approx 0.5 g), extracted from a sample of the BSA salt, was suspended in heptane (approx 5 mL). The flask was scratched with a metal spatula, and the suspension was stirred vigorously by a magnetic stir bar at 25° C. A white slurry of crystalline particles was obtained after 24 hours of stirring. The slurry was filtered and the wet cake dried in vacuo (40° C.) to provide the pure N-2 form (confirmed by PXRD) of the free base. Form N-2 was characterized by an XRD pattern which matches the simulated pattern generated from the single crystal structure data. Form N-2 is the neat (no solvate molecules or no molecules of water or solvent) form of N-((1R,2S,5R)-5-(isopropyl(methyl)amino)-2-((S)-2-oxo-3-(6-(trifluoromethyl)quinazolin-4-ylamino)pyrrolidin-1-yl)cyclohexyl)acetamide, free base. Form N-2, was characterized by a DSC thermogram having a melt endotherm onset typically at ca. 158° C. to ca. 162° C. Form N-2 was characterized by a TGA thermal curve having a negligible weight loss at up to ca. 145° C. which agreed with the single crystal structure data. The weight loss corresponded to adventitious solvent.

monkey PBMC's = assay: In vitro chemotaxis assay with monkey PBMC's; type: cell-based, Cynomolgus monkey; details: Primates, highly variable
Source text: (§1) The first employs monkey PBMC's while the second uses L1.2 cells stably transfected with Cyno CCR2.

hERG [2] = target: T1, hERG (Homo sapiens, UniProt Q12809); assay: hERG patch clamp, HEK-293 cells; details: pH 7.4
T1 sequence (Q12809 whole entry): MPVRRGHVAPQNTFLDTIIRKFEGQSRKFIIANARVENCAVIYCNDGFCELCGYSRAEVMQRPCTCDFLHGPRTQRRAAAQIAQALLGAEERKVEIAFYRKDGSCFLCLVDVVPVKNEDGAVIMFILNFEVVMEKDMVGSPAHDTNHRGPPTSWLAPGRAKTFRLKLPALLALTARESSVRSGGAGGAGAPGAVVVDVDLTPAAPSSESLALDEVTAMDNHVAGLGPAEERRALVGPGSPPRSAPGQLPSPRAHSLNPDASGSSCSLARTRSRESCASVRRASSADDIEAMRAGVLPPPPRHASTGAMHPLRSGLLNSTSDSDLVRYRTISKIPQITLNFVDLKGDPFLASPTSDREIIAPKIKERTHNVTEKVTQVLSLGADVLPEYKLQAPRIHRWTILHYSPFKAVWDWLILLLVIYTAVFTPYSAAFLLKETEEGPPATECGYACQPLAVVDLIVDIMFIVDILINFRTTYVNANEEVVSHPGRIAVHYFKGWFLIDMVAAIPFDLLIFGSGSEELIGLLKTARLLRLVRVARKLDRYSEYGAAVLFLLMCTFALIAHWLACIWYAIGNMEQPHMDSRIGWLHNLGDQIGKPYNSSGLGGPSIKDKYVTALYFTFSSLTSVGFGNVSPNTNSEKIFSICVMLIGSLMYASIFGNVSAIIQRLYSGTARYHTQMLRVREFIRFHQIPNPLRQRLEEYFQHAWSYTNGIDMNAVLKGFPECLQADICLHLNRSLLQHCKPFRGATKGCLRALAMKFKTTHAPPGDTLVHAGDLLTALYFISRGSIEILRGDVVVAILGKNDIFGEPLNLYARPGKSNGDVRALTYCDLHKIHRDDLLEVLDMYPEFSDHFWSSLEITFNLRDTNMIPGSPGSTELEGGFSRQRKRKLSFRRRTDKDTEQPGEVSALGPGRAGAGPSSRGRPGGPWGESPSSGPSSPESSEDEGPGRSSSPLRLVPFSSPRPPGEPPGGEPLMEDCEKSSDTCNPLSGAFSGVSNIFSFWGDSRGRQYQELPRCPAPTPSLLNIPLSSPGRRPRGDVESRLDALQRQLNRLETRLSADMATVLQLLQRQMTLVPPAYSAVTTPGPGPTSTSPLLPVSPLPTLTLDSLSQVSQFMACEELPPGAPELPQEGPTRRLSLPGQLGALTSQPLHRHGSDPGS

[3] = target: human cardiac sodium channel SCN5A (Homo sapiens, UniProt Q14524); assay: Sodium channel patch clamp, HEK-293 cells; type: cell-based; details: read-out: Na+ channel patch clamp (% Inhib.)
Chain of human cardiac sodium channel SCN5A (Q14524 whole entry): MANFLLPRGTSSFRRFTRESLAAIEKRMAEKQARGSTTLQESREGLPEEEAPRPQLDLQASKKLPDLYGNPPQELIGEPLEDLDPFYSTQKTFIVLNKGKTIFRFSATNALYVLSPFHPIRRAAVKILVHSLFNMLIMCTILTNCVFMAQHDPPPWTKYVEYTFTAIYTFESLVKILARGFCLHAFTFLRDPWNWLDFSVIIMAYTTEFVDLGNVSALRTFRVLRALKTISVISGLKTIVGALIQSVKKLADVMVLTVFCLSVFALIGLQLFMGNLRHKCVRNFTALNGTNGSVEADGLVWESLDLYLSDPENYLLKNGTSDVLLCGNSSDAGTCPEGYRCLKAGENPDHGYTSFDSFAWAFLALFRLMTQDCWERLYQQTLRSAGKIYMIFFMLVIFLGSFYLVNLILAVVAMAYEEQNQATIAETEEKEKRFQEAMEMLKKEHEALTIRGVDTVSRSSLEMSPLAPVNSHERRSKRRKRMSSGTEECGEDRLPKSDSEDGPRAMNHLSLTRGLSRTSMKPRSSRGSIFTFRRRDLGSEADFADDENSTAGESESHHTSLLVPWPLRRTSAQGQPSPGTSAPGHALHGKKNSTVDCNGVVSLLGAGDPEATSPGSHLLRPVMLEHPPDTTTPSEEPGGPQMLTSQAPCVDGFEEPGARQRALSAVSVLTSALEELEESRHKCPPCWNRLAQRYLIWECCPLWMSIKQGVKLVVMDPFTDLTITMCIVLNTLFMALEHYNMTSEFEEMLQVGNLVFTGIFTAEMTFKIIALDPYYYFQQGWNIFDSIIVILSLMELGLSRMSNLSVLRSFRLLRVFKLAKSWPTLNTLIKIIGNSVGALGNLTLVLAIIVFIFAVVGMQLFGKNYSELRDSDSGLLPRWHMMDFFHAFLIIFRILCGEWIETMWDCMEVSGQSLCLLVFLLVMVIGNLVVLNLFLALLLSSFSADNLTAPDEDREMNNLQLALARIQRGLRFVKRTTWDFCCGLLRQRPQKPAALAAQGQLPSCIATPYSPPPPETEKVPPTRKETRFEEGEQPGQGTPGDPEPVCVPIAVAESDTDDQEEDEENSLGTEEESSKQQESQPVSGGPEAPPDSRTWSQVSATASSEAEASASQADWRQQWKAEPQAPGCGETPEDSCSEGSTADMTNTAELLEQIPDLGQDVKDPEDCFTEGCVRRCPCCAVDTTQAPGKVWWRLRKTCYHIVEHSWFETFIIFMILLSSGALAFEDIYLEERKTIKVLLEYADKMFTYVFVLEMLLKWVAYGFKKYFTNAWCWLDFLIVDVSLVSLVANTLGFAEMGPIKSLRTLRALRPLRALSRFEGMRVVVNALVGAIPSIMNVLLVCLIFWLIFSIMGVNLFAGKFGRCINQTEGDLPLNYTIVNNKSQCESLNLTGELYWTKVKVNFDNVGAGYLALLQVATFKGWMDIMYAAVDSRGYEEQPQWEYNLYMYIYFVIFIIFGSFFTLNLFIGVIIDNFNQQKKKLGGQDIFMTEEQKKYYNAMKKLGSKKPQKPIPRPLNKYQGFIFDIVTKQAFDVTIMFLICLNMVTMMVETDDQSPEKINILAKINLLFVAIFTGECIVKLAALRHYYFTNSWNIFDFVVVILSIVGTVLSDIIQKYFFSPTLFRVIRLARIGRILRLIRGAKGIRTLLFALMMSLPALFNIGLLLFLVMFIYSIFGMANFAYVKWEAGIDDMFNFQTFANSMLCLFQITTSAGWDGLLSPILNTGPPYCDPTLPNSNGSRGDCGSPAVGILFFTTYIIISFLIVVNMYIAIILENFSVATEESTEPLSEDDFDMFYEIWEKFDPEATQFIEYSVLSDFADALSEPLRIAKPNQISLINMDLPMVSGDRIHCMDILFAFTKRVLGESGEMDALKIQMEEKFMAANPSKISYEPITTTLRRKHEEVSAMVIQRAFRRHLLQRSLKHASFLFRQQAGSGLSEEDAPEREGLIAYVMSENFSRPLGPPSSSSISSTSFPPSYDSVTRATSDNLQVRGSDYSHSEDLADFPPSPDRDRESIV
Method: The compound was tested at a protein-free aqueous buffer. For determining steady state inhibition, sodium currents were elicited every 5 seconds using the following voltage protocol: cells were held at a potential of −90 mV and stepped to −20 mV for 60 ms. Effects were calculated by measuring inhibition of peak current during the test pulse to −20 mV. Rate-dependence of inhibition was assessed by stimulation at frequencies of 1 Hz and 4 Hz.

[4] = tested on: monocyte/macrophage infiltration into peritoneal cavity; assay: 48-hour thioglycollate (TG)-induced peritonitis model in hCCR2 KI mouse; type: in vivo, hCCR2 KI mice; details: for % inhibition of monocyte/macrophage infiltration: FACS-based analysis of total monocyte/macrophages, 48 h; for EC50: Mus musculus, two separate studies, estimated, read-out: average EC50 for inhibition of monocyte/macrophage infiltration; for inhibition of monocyte/macrophage infiltration: flow cytometry (F4/80, Ly6C)
Method: The hCCR2 KI mice (C57BL/6-SVJ129) were injected intraperitoneally with 1 ml of thioglycollate (TG) (Hardy Diagnostics). For each study, eight male mice per group were used. […] The vehicle used was 0.01 N HCl in water. Forty-eight hours post TG injection, peritoneal lavages were performed by injecting 5 ml PBS/10 mM EDTA/10% BSA into the peritoneal cavity.
Cytospins were performed to determine differential leukocyte counts. The cells were stained for 3 minutes with Wright-Giemsa Stain (Sigma-Aldrich) and then rinsed with deionized water for 5 minutes. Differential counts were calculated based on a total of 200 cells counted per sample.

hERG [5] = target: T1, hERG; assay: hERG flux (Tl+ flux, FLIPR) in HEK293 cells; type: cell-based; set-up: expressed in transfected cells; host or cells: HEK293
Method: HEK293 cells stably-expressing hERG channels were grown (37° C., 5% CO2) in Dulbecco's Modified Eagle's Media supplemented with 10% Sigma fetal bovine serum, non-essential amino acids, 2 mM L-glutamine and 500 μg/ml G418, at incubator.
A 2 mM stock of BTC-AM dye (Molecular Probes, Eugene, Oreg.) was prepared in 100% DMSO and then added 1:1 to 10% (w/v) pluronic acid in DMSO on the day of assay. The dye was then diluted in hERG external EP buffer (140 mM NaCl, 4.0 mM KCl, 1.8 mM CaCl2, 1.0 mM MgCl2, 10 mM HEPES, pH 7.3 and 10 mM glucose; all buffer components obtained from Sigma Chemical). This BTC dye mixture (30 μl) was added to the cells and produced a final loading concentration of 2.5 μM. Cells are incubated at 21° C. for 45 minutes.
Test compounds were diluted to 10 mM DMSO in 60 μl. […] Assay-ready plates were generated by stamping 2.5 μl from the DMSO serially diluted plate, which was prepared on the Velocity 11 BioCel. Aqueous plates were created by adding 48 μl of EP buffer and then were diluted 30-45 minutes before the assay was read on the FLIPR. […] Assay-ready aqueous plates were prepared and diluted on a Cybio liquid handler.
Cells loaded with dye were read on the FLIPR384 (Molecular Devices, Sunnyvale, Calif.), which excites the dye using the 488 nm line of an argon laser. […]
The dynamic range of the assay was determined from blanks and totals wells. […]

CCR2 [6] = target: T2, CCR2 (Homo sapiens, UniProt P41597); assay: In vivo receptor occupancy in blood of hCCR2 KI mice, 48-hour TG peritonitis model (Gaddum equation); details: for Concentration of Mouse MCP-1 in plasma / Concentration of free Example 1 in plasma: 48-hour TG peritonitis; for % free CCR2 / % mouse MCP-1 bound CCR2 / % of Example 1-bound CCR2: Gaddum equation
T2 sequence (P41597 whole entry): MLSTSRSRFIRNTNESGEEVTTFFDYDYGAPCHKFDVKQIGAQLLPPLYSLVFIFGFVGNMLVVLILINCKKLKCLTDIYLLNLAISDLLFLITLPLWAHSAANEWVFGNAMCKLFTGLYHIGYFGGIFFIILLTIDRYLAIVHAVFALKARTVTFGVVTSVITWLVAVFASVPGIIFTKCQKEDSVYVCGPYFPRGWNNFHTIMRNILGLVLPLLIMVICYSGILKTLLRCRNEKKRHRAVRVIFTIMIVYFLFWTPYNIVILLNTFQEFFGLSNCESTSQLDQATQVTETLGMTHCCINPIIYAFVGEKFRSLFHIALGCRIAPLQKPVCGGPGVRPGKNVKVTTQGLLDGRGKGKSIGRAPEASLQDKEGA

[7] = target: Cyno CCR2 (Macaca fascicularis); assay: In vitro chemotaxis assay with L1.2 cells stably transfected with Cyno CCR2; type: cell-based, Cynomolgus monkey
Chain of Cyno CCR2 (Macaca fascicularis) (Z9BGH1DMK8 1-374): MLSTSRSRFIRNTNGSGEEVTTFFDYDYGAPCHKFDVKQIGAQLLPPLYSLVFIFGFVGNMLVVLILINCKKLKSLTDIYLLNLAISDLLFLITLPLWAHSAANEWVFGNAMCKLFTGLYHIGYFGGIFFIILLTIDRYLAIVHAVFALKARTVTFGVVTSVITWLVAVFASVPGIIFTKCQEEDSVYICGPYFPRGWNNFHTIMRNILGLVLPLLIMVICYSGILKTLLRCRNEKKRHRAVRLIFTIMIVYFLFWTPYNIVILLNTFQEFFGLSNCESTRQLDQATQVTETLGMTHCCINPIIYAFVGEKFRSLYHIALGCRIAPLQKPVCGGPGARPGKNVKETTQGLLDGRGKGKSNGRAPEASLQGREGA
Source text: as §1

[8] = Intradermal (ID) MCP-1 challenge model in Cynomolgus monkey; type: in vivo; set-up: PMN score / Eos score / Total cell score: scale not given here; details: both sexes, cynomolgus monkey, plasma, read-out: Free plasma conc
Method: (§2) Intradermal injection of MCP-1 results in the infiltration of mononuclear cells to the injection site. This model was initially developed to assess the inhibitory effect of CCR2 antagonists on the infiltration of mononuclear cells to the skin tissue injected with human MCP-1.
(§3) Immediately after dosing on Day 3, all animals received at least 2 intradermal injections of 10 μg (50 μL/injection ) of human MCP-1 (R & D Systems) and at least 2 intradermal injections of its DPBS control (50 μl/injection) at separate sites on the dorsal thorax. Dermal biopsies of all sites were obtained at approximately 18 hours following MCP-1 (or DPBS) challenge. Biopsies were processed for semi-quantitative histological evaluation. Representative sections of skin samples were examined by light microscopy, microscopic lesions and cellular infiltration were noted, and their incidences were tabulated.
(§4) For both studies, in addition to biopsy analysis, blood was collected and evaluated for complete blood counts and cell differentials. Also evaluated were plasma samples for compound concentrations, and serum samples for systemic inflammatory mediator levels.

[9] = tested on: infiltration of mononuclear cells to the skin tissue injected with human MCP-1; assay: as above; type: in vivo; set-up: PMN score / Eos score / Total cell score: scale not given here; details: for inhibition of mononuclear cell infiltration: second study, naive monkeys
Method: as §2, §3, §4

[10] = Single-dose pharmacokinetics in monkeys; details: male, Cynomolgus, cynomolgus monkey
Method: The pharmacokinetics of various test compounds were evaluated in male Cynomolgus monkeys in a crossover-design. Monkeys were fasted overnight prior to PO dosing and fed 4 h post dose. […] Serial blood samples (˜0.3 mL) were collected from a femoral artery at 0.17 (IV only), 0.25, 0.5, 0.75, 1, 2, 4, 6, 8, and 24 h post dose, and centrifuged at 4° C. (1500-2000×g) to obtain plasma. Samples were stored at −20° C. until analysis by LC/MS/MS.
(§5) The pharmacokinetic parameters were obtained by non-compartmental analysis of plasma concentration vs. time data ([…] ™ software, Version 4.2, InnaPhase Corporation, Philadelphia, Pa.). The peak concentration (Cmax) and time for Cmax were recorded directly from experimental observations. The area under the curve from time zero to the last sampling time (AUC(0-T)) was calculated using a combination of linear and log trapezoidal summations. The total plasma clearance (CLTp), steady-state volume of distribution (Vss), apparent elimination half-life (T½) and mean residence time (MRT) were estimated after IV administration. […] The absolute oral bioavailability (F) was estimated as the ratio of dose-normalized AUC values following oral and IV doses.

[11] = Parallel Artificial Membrane Permeability Assay (PAMPA); details: mean ± SD (n in parentheses)
Source text: The Parallel Artificial Membrane Permeability Assay (PAMPA) consists of a specially formulated lecithin-based lipid combination referred to as the gastrointestinal tract (GIT) lipid. The GIT lipid is used to form a membrane in a sandwich plate assembly similar to that used in the Caco-2 assays. […] The rate of passage of compounds through the PAMPA membrane is used to determine a permeability coefficient (Pc), which can be related to the in vivo passive permeability of the compound.
The permeability coefficient (Pc) of a particular compound is examined in a pH-dependent setting with apical and basolateral pH of 7.4. All experiments are conducted in triplicate determinations.
The PAMPA assay plate (donor side and acceptor side) was combined and allowed to incubate at room temperature for 4 hours. […] The donor, acceptor, reference, and blank plates were read in the SpectraMax UV plate reader. Data was captured by the pION software, which analyzes the spectra and generates Pc values.

[12] = Single-dose pharmacokinetics in rats; details: rat
Method: Male Sprague-Dawley rats (250-300 g) were used for the pharmacokinetic studies. Rats were fasted overnight prior to PO dosing and fed 4 h post dose. Blood samples (˜0.3 mL) were collected from the jugular vein into K2EDTA-containing tubes and then centrifuged at 4° C. (1500-2000×g) to obtain plasma. […] Serial blood samples were obtained at 0.17 (for IV only), 0.25, 0.5, 0.75, 1, 2, 4, 6, 8, and 24 h post dose. Plasma samples, obtained by centrifugation at 4° C. (1500-2000×g), were stored at −20° C. until analysis by LC/MS/MS.
as §5

[13] = tested on: EAE, a model of multiple sclerosis; type: in vivo
CCR2 [14] = target: T2, CCR2; assay: Cold competition ligand binding to hCCR2 using 125I-human MCP-1; details: 125I-human MCP-1, n=8

With `CC(=O)N[C@@H]1C[C@H](N(C)C(C)C)CC[C@@H]1N1CC[C@H](Nc2ncnc3ccc(C(F)(F)F)cc23)C1=O` [Form N-2, N-((1R,2S,5R)-5-(isopropyl(methyl)amino)-2-((S)-2-oxo-3-(6-(trifluoromethyl)quinazolin-4-ylamino)pyrrolidin-1-yl)cyclohexyl)acetamide] the “moisture-sorption isotherm weight gain” value [1] was 0.15%.
With `CC(=O)N[C@@H]1C[C@H](N(C)C(C)C)CC[C@@H]1N1CC[C@H](Nc2ncnc3ccc(C(F)(F)F)cc23)C1=O` [Example 1, N-((1R,2S,5R)-5-(isopropyl(methyl)amino)-2-((S)-2-oxo-3-(6-(trifluoromethyl)quinazolin-4-ylamino)pyrrolidin-1-yl)cyclohexyl)acetamide] the IC50 (monkey PBMC's) was 5.5 ± 10 nM, the inhibition at 10000 nM (hERG [2]) was 33% and the inhibition at 30000 nM (hERG [2]) was 61%. For the same compound, the inhibition at 10000 nM ([3]; HEK-293 cells expressing human cardiac sodium channel SCN5A, 10,000 nM) was 17%, the inhibition at 30000 nM ([3]; HEK-293 cells expressing human cardiac sodium channel SCN5A, 30,000 nM) was 19% and the “% inhibition of monocyte/macrophage infiltration” value ([4]; 1 mg/kg) was 38%. For the same compound, the “% inhibition of monocyte/macrophage infiltration” value ([4]; 5 mg/kg) was 71%, the “% inhibition of monocyte/macrophage infiltration” value ([4]; 25 mg/kg) was 86% and the “number of total peritoneal leukocytes obtained by cell counter” value ([4]; 1, 5, or 25 mg/kg BID oral, 48 hours post TG) was “dose-dependent reduction”. The EC50 ([4]; differential leukocyte counts) was 3 ± 0.9 nM, the EC50 ([4]; flow cytometry) was 2.2 ± 0.5 nM and the “inhibition of monocyte/macrophage influx” value ([4]; differential leukocyte counts, 1 mg/kg BID) was 20%. For the same compound, the “inhibition of monocyte/macrophage influx” value ([4]; differential leukocyte counts, 5 mg/kg BID) was 62%, the “inhibition of monocyte/macrophage influx” value ([4]; differential leukocyte counts, 25 mg/kg BID) was 69% and the “inhibition of monocyte/macrophage infiltration” value ([4]; 1 mg/kg BID) was 38%. The “inhibition of monocyte/macrophage infiltration” value ([4]; 5 mg/kg BID) was 71%, the “inhibition of monocyte/macrophage infiltration” value ([4]; 25 mg/kg BID) was 86% and the IC50 (hERG [5]) was > 80000 nM. The “Concentration of Mouse MCP-1 in plasma” value (CCR2 [6]; 1 mg/kg oral BID) was 0.027 nM, the “Concentration of free Example 1 in plasma” value (CCR2 [6]; 1 mg/kg oral BID) was 1 nM and the “% free CCR2” value (CCR2 [6]; 1 mg/kg) was 53.7%. The “% mouse MCP-1 bound CCR2” value (CCR2 [6]; 1 mg/kg) was 1.6%, the “% of Example 1-bound CCR2” value (CCR2 [6]; 1 mg/kg) was 44.7% and the “Concentration of Mouse MCP-1 in plasma” value (CCR2 [6]; 5 mg/kg oral BID) was 0.043 nM. For the same compound, the “Concentration of free Example 1 in plasma” value (CCR2 [6]; 5 mg/kg oral BID) was 4 nM, the “% free CCR2” value (CCR2 [6]; 5 mg/kg) was 22.8% and the “% mouse MCP-1 bound CCR2” value (CCR2 [6]; 5 mg/kg) was 1.1%. The “% of Example 1-bound CCR2” value (CCR2 [6]; 5 mg/kg) was 76.1%, the “Concentration of Mouse MCP-1 in plasma” value (CCR2 [6]; 25 mg/kg oral BID) was 0.041 nM and the “Concentration of free Example 1 in plasma” value (CCR2 [6]; 25 mg/kg oral BID) was 24 nM. The “% free CCR2” value (CCR2 [6]; 25 mg/kg) was 4.8%, the “% mouse MCP-1 bound CCR2” value (CCR2 [6]; 25 mg/kg) was 0.2% and the “% of Example 1-bound CCR2” value (CCR2 [6]; 25 mg/kg) was 95.0%. For the same compound, the IC50 [7] was 11.4 ± 8 nM, the concentration at 18 h ([8]; 6.5 mg/kg once daily for 3 days, Study 1, 6.5 mg/kg oral once daily 3 days, 18 hours) was 53 nM and the concentration at 18 h ([8]; 13 mg/kg once daily for 3 days, Study 1, 13 mg/kg oral once daily 3 days, 18 hours) was 101 nM. The concentration at 18 h ([8]; 26 mg/kg once daily for 3 days, Study 1, 26 mg/kg oral once daily 3 days, 18 hours) was 238 nM, the concentration at 18 h ([8]; Study 2 (naive monkeys), 10 mg/kg oral once daily 3 days) was 34 nM and the concentration at 18 h ([8]; Study 2 (naive monkeys), 30 mg/kg oral once daily 3 days) was 83 nM. The Eos score ([9]; Study 1, 6.5 mg/kg) was 1.3 ± 0.8, the “MNC score (inh %)” value ([9]; Study 1, 6.5 mg/kg) was “(19%)” and the PMN score ([9]; Study 1, 6.5 mg/kg) was 0.8 ± 0.3. The Total cell score ([9]; Study 1, 6.5 mg/kg) was 4.3 ± 1.6, the MNC score ([9]; Study 1, 6.5 mg/kg, scale of 0 to 4) was 2.2 ± 0.6 and the Eos score ([9]; Study 1, 13 mg/kg) was 1.2 ± 0.6. For the same compound, the “MNC score (inh %)” value ([9]; Study 1, 13 mg/kg) was “(19%)”, the PMN score ([9]; Study 1, 13 mg/kg) was 0.7 ± 0.3 and the Total cell score ([9]; Study 1, 13 mg/kg) was 4.0 ± 0.5. For the same compound, the MNC score ([9]; Study 1, 13 mg/kg, scale of 0 to 4) was 2.2 ± 0.3, the Eos score ([9]; Study 1, 26 mg/kg) was 0.5 ± 0^ and the “MNC score (inh %)” value ([9]; Study 1, 26 mg/kg) was “(56%)”. For the same compound, the PMN score ([9]; Study 1, 26 mg/kg) was 0.2 ± 0.3, the Total cell score ([9]; Study 1, 26 mg/kg) was 1.8 ± 0.8 and the MNC score ([9]; Study 1, 26 mg/kg, scale of 0 to 4) was 1.2 ± 0.6. For the same compound, the Eos score ([9]; Study 2, 10 mg/kg) was 0.3 ± 0.1, the MNC score ([9]; Study 2, 10 mg/kg) was 0.2 ± 0.2 and the “MNC score (inh %)” value ([9]; Study 2, 10 mg/kg) was “(87%)”. The PMN score ([9]; Study 2, 10 mg/kg) was 0, the Total cell score ([9]; Study 2, 10 mg/kg) was 0.5 ± 0.2 and the Eos score ([9]; Study 2, 30 mg/kg) was 0.6 ± 0.7. For the same compound, the MNC score ([9]; Study 2, 30 mg/kg) was 0.1 ± 0.3, the “MNC score (inh %)” value ([9]; Study 2, 30 mg/kg) was “(91%)” and the PMN score ([9]; Study 2, 30 mg/kg) was 0.1 ± 0.3. The Total cell score ([9]; Study 2, 30 mg/kg) was 0.8 ± 0.8, the “infiltration of other cells types such as eosinophils and neutrophils” value ([9]; first study) was “inhibited the infiltration” and the “inhibition of MCP-1 induced infiltration of mononuclear cells to the skin” value ([9]; first study, 26 mg/kg oral once daily for three days, biopsy 18 hours after MCP-1) was 56%. The “inhibition of MCP-1 induced infiltration of mononuclear cells to the skin” value ([9]; first study, 13 and 6.5 mg/kg) was “lower levels of inhibition”, the “inhibition of mononuclear cell infiltration” value ([9]; 10 mg/kg) was 87% and the “inhibition of mononuclear cell infiltration” value ([9]; 30 mg/kg) was 91%. For the same compound, the bioavailability ([10]; in vivo, po, 1.3 mg/kg) was 47%, the clearance ([10]; plasma, iv, 1 mg/kg) was 23 mL/min/kg and the AUC ([10]; plasma, po, 1.3 mg/kg) was 0.836 µM·h. For the same compound, the PAMPA permeability [11] was 443 ± 114 (8) nm/sec, the AUC ([12]; male, Sprague-Dawley, plasma, po, 10 mg/kg) was 3.79 µM·h and the Cl ([12]; IV, dose IV/PO mg/kg: 2k 2.5/25, 8a 6/72, 9c 4/43, Example 1 2/10) was 43 mL/min/kg. For the same compound, the F % ([12]; dose IV/PO mg/kg: 2k 2.5/25, 8a 6/72, 9c 4/43, Example 1 2/10) was 51%, the clinical score ([13]; 55 mg/kg BID oral from day 1, two of the three studies, p<0.05) was “significantly reduced the clinical score” and the “total inflammatory cellular infiltrate, histological evaluation of the spinal cord” value ([13]; Day 22, versus vehicle) was “did not demonstrate a significant difference”.
“mouse MCP-1: mouse CCR2 ligand MCP-1 (chemokine)” gave a Kd (CCR2 [14]) of 0.91 nM.
